Laboratory results as given in US11311568B2, “Therapeutic pharmaceutical composition for cancer including miRNA” (Purmx Therapeutics, Inc., priority 2017, dated 2022).

What was measured:
[1] = tested on: malignant pleural mesothelioma cell strain EHMES-10; experiment: Antitumor effect in vivo, intrathoracic orthotopic transplantation model mouse; parameters: species or system mice (C-B-17/Icr-scid/scid Jcl)
Method: The tumor suppression effect of miR-3140-3p in vivo was investigated with intrathoracic orthotopic transplantation model mouse.
Six weeks-old male mice (C-B-17/Icr-scid/scid Jcl) were used as mice. Malignant pleural mesothelioma cell strain EHMES-10 which expresses the luciferase gene was used as the tumor cell.
The experiment protocol is shown below.
1: Mice were intraperitoneally administered 0.1 mL per 10 g of body weight of a mixed anesthetic drug of medetomidine hydrochloride, midazolam, and butorphanol tartrate.
2: After anesthesia, mouse chest hair was shaved, and an incision was made in the epidermis with scissors.
3: In the mouse pleural cavity 100 μL of tumor cells (3×10^7 cells/mL) was transplanted with a 27 G syringe for insulin.
4: Three days after transplantation, imaging of tumor cells was performed with IVIS Spectrum CT In vivo Imaging System.
5: After imaging, grouping was performed with successfully transplanted mice.
6: Mice were intraperitoneally administered 0.1 mL per 10 g of body weight of a mixed anesthetic drug of medetomidine hydrochloride, midazolam, and butorphanol tartrate to anesthetize the mice.
7: After anesthesia, 100 μL of miRNA/A6K mixture was administered in the mouse pleural cavity.
8: Imaging was performed every week from the first imaging, and tumor expansion was observed.
9: The time and date of death of the mice was recorded, and mice survival rate was calculated.
The mixed anesthetic drug of medetomidine hydrochloride, midazolam, and butorphanol tartrate was prepared as in Table 4 below. The miRNA/A6K mixture was prepared as in Table 5. Moreover, the control group was administered the RNA shown in Table 6 instead of the miRNA of the present invention.
Note that in order to improve expression efficiency, miRNA was administered as a double-strand in combination with a complementary strand comprising partial mismatch.

[2] = tested on: lung cancer cell strain (A549); experiment: Cell growth inhibition, cell count after transfection; type: cell-based; settings: A549, final concentration 10.0 nM, six days after transfection, FIG. 11
Method: miR-3140-3p was transfected into lung cancer cell strain (A549), and cell proliferation was observed. […] Transfection was carried out with the following protocol.
(§1) 1: To a 35 mm dish were added 500 μL of serum free medium (SFM) and 5 μL of RNAiMAX (Invitrogen).
2: To the solution from 1 was added 1 μL each of miR-Control or miR-3140-3p, miR-22-3p, and miR-34a-5p (stock conc. 20 μM) (final concentration 10.0 nM).
(§2) 3: This was incubated at room temperature for 20 minutes.
(§3) 4: 1.5 mL of a cell suspension diluted to 6.7×10^4 cells/mL was added to the 35 mm dish.
(§4) 5: This was incubated at 37° C. under 5% CO2 condition.
6: The cells were counted six days after transfection.

[3] = tested on: malignant pleural mesothelioma cells EHMES-10; experiment: Antitumor effect in vivo, subcutaneous transplantation of EHMES-10 cells; parameters: species or system SCID mouse; settings: SCID mice, EHMES-10 subcutaneous, 13 administrations
Method: Malignant pleural mesothelioma cells EHMES-10 cells were used.
1: The cells on the dish were washed twice with PBS (-).
2: The cells were detached with trypsin.
3: This was suspended in a medium, and cells were counted.
4: Centrifugation at a condition of 1000 rpm for 3 min was performed to pellet down.
5: The cells were resuspended in PBS (-) in order to obtain 2.0×10^7 cells/mL.
Six weeks-old C-B-17/Icr-scid/scid Jcl (SCID mouse) were used as mice. SCID mice were subcutaneously administered 100 μL of the prepared cell suspension, and the cells were allowed to settle.
Negative control which is the control sequence and miR-3140-3p which is the miRNA of the present invention were employed. A6K (from 3D Matrix) was employed as the nucleic acid delivery reagent. The administration of miRNA to mice was carried out with the following protocol.
1: 100 μM of the nucleic acid (miRNA) was diluted with 10% saline and sterilized water in order to obtain 71.4 μM.
2: 1% A6K solution was sonicated for 5 minutes before use.
3: The diluted nucleic acid and the 1% A6K solution were mixed at a proportion of 1:1 to give the administration nucleic acid.
4: SCID mice were subcutaneously administered (tumor site) 50 μL each of the administration nucleic acid.
1: From two days after transplantation, the nucleic acid was administered every one or two days. […]

[4] = tested on: large intestine cancer cell strain HT29; experiment: Cell growth inhibition, cell count after transfection; type: cell-based; settings: HT29, final concentration 10.0 nM, seven days after transfection, FIG. 12
Method: (§5) miR-3140-3p was transfected into large intestine cancer cell strains (SW620, SW480, and HT29), and cell proliferation was observed. Transfection was carried out with the following protocol.
as §1
(§6) 2: To the solution from 1 was added 12.5 μL each of miR-Control or miR-3140-3p, miR-22-3p, and miR-34a-5p (stock conc. 2 μM) (final concentration 10.0 nM).
as §2, §3, §4
(§7) 6: The cells were counted seven days after transfection.
(§8) Setting the number of control introduction cells as 100%, the survival rate of cells in which miR-3140-3p was introduced was shown in %.

[5] = tested on: large intestine cancer cell strain SW480; experiment: as above; type: cell-based; settings: SW480, final concentration 10.0 nM, seven days after transfection, FIG. 12
Method: as §5, §1, §6, §2, §3, §4, §7, §8

[6] = tested on: large intestine cancer cell strain SW620; experiment: as above; type: cell-based; settings: SW620, final concentration 10.0 nM, seven days after transfection, FIG. 12
Method: as §5, §1, §6, §2, §3, §4, §7, §8

## miR-3140-3p: Mature-miRNA, AGCUUUUGGGAAUUCAGGUAGU (SEQ ID NO. 2) (listed as RNA, chemistry not given here; listed as Homo sapiens)
[1]; one administration of miRNA/A6K in pleural cavity, 3.2 nmol (45 μg) per mouse, Day 10 to Day 24 after transplantation, FIG. 20
  tumor reduction by imaging: tumor reduction was seen
[1]; one administration of miRNA/A6K in pleural cavity, FIG. 21
  tumor expansion (imaging results digitized): significantly suppressed tumor expansion
[1]; one administration of miRNA/A6K in pleural cavity, FIG. 22
  survival rates of mice: survival rates of mice had improved
[1]; three administrations of miRNA/A6K in pleural cavity, FIG. 28
  survival rates of mice: more improved
[1]; three administrations of miRNA/A6K in pleural cavity, FIGS. 26-28
  suppression of malignant pleural mesothelioma (imaging, survival): significantly suppressed malignant pleural mesothelioma
[1]; two administrations of miRNA/A6K in pleural cavity, FIGS. 23-25
  suppression of malignant pleural mesothelioma (imaging, survival): significantly suppressed malignant pleural mesothelioma
[2]
  cell growth inhibition effect (cell count): extremely high cell growth inhibition effect
[3]; 33 days after transplantation, FIG. 16
  tumor weight at endpoint compared to the control group: a similar result
[3]; miRNA with A6K at tumor site, imaging at 12, 19, 26, 33 days, FIGS. 14-15
  expansion of the tumor (luciferin imaging) compared to the control group: expansion of the tumor was suppressed
[4]
  cell growth inhibition effect (survival rate of cells, control = 100%): extremely high cell growth inhibition effect
[5]
  cell growth inhibition effect (survival rate of cells, control = 100%): extremely high cell growth inhibition effect
[6]
  cell growth inhibition effect (survival rate of cells, control = 100%): extremely high cell growth inhibition effect
